Results published in US12702692B2, “Therapeutic use of calcium-activated chloride channel peptide activator” (CENTRE NATIONAL DE LA RECHERCHE SCIENTIFIQUE, priority 2020, dated 2026).

What was measured:
[1] = Acute effect on tear fluid secretion (tearing rate, phenol red thread) in naive rats; assay type: in vivo, Sprague-Dawley rats
Procedure: Sprague-Dawley rats (males, around 200 g) were purchased from Charles River and adapted one week before processing the experiment. Two-three rats per cage were housed in a controlled environment of 12 hours intervals of light/dark cycles and free access to food and water. Animal experiments were approved by the Animal Care and Use Committee of the University of Barcelona (CEEA) and the […] de Territori i Sostenibilitat of Generalitat de Catalunya, Catalonia, Spain (319/19; 10935) and followed the ethical guidelines of the International Association for the Study of Pain. […] (also named Nter 13 peptide or […] NO: 2)) and scramble ([…] NO: 7)) peptides were purchased from GenScript Biotech (Leiden, Netherlands) and provided by CNRS. Both peptides were dissolved in Phosphate Buffered Saline (PBS) at 10 mM and used for topical ocular application (5 ul per eye). Tear fluid secretion (tearing rate) was measured using phenol red threads (Zone-Quick, Menicon, Nagoya, Japan) placed on the lower eyelid for 30 s without topical anesthesia (Trost, 2007; Acosta 2013). Tearing rate was determined with an accuracy of ±0.5 mm by measurement of the length of the red portion of the thread. After habituation of the animals, basal tearing rate was measured in both eyes before any topical application of peptides. Then, animals were divided in different groups and a solution containing vehicle (PBS), amiloride (1 mM), peptide N13 or peptide scramble was topically applied to the ocular surface (5 μl) and tearing rate was measured at 1, 3, 6, 12 and 24 h. Tearing rate measurements were done blind to the treatment received by the animals. Data are presented as mean±standard error of the mean (SEM). Statistical differences between different sets of data were assessed by performing repeated measured One-way ANOVA plus Bonferroni's post-tests (each data point in an experimental group vs. basal values) or repeated measured Two-way ANOVA plus Bonferroni's post-tests (each data point in […] group vs. Scramble or Vehicle group; or point in […] or amiloride groups vs. Vehicle group) using Prism 9 (GraphPad Software, San Diego, CA). The significance level was set at p<0.05 in all statistical analyses.

TMEM16A [2] = target: T1, TMEM16A (Mus musculus, UniProt Q8BHY3); assay: Whole-cell patch-clamp of voltage-dependent Cl- current in proximal convoluted tubule (PCT) cells; assay type: cell-based; settings: for Cl- current density after inhibitor: wild type PCT cells, untreated wild type 18.07±1.21
T1 construct: endogenous in cells; host or cells: primary mouse kidney proximal convoluted tubule (PCT) cells
Procedure: (§1) mTMEM16A (kindly provided by Dr Lily Yeh Jan) and hKCNE1 cDNA were subcloned in pIRES2eGFP, pXOOM, pcDNA3.1, pCDNA3.1-GFP and pCMV-HA vectors. Truncations and mutations on KCNE1 were generated by PCR. For SiMPull experiments, HA-tags were fused to the N-terminus of sequences, whereas GFP-tags were fused to C-terminal part. HEK293T and PCT cells were transiently co-transfected using Lipofectamine 2000 or the calcium phosphate method with a total amount of 1 and 3.5 μg of DNA, respectively, and seeded on 18 mm diameter coverslips. HEK cells were maintained in DMEM with 5% FBS on poly-L-lysine-coated glass coverslips in 12 well plates. PCT cells from wild type and knock-out mice were microdissected as described previously and maintained in F12 (Gibco) on collagen-coated glass coverslips.
(§2) HEK293T and PCT cell electrophysiology was performed 24-48 h after transfection. For whole-cell patch-clamp experiments cells were recorded in a bath solution containing (in mM) 150 NaCl, 5 KCl, 2 CaCl2 and 10 HEPES, pH 7.4 and 0.05% BSA. The glass pipettes (2-5 MΩ of resistance) were filled with (in mM) 5 NaCl, 135 CsCl, 2 MgCl2, 5 EGTA, 10 HEPES, pH 7.3. Cells were recorded either after incubation of 30 min with the peptide or during perfusion with the peptide. Total calcium concentration was calculated with Maxchelator (maxchelator.standford.edu) for a temperature of 20° C. HEK293T and PCT cells were recorded at room temperature in voltage-clamp mode using an Axopatch 200A (Molecular Devices) amplifier. Signals were filtered at 10 kHz and digitalized at 20 kHz. Whole-cell currents were elicited by voltage-ramps (from −100 to +100 mV, 1 s) and I-V stimulation pulses (from −100 to +100 mV in 20 mV increments, 1 s each pulse), holding the cells at −80 mV. Current densities were measured at +100 mV. Cell recordings, data acquisition and analysis of electrophysiology experiments were performed using pClamp software (Molecular Devices).
T1 sequence (P23299 whole entry partner, one chain of several): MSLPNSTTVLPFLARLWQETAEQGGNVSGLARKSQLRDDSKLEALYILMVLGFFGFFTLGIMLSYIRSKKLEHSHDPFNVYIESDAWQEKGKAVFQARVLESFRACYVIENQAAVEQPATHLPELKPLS

TMEM16A [3] = target: T2, TMEM16A (Mus musculus, UniProt Q8BHY3); assay: Whole-cell patch-clamp of HEK293T cells expressing TMEM16A; assay type: cell-based; settings: for inhibition of KCNE1-TMEM16A chloride current: HEK293T co-expressing TMEM16A and KCNE1; for effect of peptide application on TMEM16A current: HEK293T cells expressing TMEM16A alone, 100 μM for Nter13, S38G and rat peptides
T2 construct: expressed in transfected cells; host or cells: HEK293T
T2 sequence (Q8BHY3 1-960): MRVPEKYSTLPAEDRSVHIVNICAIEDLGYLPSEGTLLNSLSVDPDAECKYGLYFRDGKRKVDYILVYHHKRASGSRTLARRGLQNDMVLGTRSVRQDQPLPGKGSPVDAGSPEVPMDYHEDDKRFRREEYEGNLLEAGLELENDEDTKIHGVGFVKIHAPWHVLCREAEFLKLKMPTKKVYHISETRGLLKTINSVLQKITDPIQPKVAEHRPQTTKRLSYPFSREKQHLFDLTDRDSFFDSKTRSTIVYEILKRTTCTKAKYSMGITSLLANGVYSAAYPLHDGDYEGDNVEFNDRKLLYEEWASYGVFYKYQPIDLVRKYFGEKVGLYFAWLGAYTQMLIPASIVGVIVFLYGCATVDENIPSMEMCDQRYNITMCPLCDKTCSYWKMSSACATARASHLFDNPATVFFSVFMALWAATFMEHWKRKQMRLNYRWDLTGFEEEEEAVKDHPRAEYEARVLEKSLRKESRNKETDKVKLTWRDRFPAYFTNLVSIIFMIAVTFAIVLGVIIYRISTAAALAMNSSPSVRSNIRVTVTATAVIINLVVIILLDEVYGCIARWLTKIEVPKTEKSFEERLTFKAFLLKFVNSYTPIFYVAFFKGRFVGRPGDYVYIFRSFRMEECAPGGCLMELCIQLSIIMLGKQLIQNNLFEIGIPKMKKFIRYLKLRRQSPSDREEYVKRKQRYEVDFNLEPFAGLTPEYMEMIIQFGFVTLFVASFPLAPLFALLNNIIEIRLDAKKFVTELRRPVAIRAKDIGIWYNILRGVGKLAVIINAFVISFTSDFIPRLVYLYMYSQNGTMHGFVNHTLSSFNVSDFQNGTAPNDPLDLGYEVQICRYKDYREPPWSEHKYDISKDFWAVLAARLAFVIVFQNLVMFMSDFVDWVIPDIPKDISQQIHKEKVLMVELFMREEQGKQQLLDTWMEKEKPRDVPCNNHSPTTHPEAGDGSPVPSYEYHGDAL
Procedure: as §1, §2

SK4 channel = target: T3, SK4 channel (Homo sapiens, UniProt O15554); assay: Patch-clamp of HEK293T cells transfected with SK4 and KCNE1; assay type: cell-based; settings: absence of calcium
T3 construct: expressed in transfected cells
Procedure: as §2

KCNQ1 = target: T4, KCNQ1 (Homo sapiens, UniProt P51787); assay: Whole-cell patch-clamp of cells transfected with KCNQ1 and KCNE1 variants; assay type: cell-based; settings: co-transfected with wild type KCNQ1, current densities at +40 mV
T4 construct: expressed in transfected cells

[4] = KCNE1 form co-expressed with TMEM16A in HEK293T cells

N=C(N)NC(=O)c1nc(Cl)c(N)nc1N [Amiloride, amiloride, reference compound]
effect on tearing rate compared with Vehicle ([1]; N13ter 10 mM, amiloride 1 mM, vehicle PBS): did not show a statistically significant effect
eyes with increased tearing rate between 1 h to 3 h ([1]; amiloride 1 mM topical): 7 out of 14

COc1ccccc1/C=N/NC(=O)COc1ccc(Cl)cc1C [Ani9, reference compound]
Cl- current density after inhibitor (TMEM16A [2]; Ani9 5 μM): 2.88±0.38 pA/pF
inhibition of KCNE1-TMEM16A chloride current (TMEM16A [3]; Ani9 300 nM): inhibited
effect of Ani9 on Nter13-induced TMEM16A current (TMEM16A [3]; Ani9 5 μM after Nter13 100 μM, HEK293T expressing TMEM16A alone): reversion

O=C(O)c1cccnc1Nc1cccc(C(F)(F)F)c1 [NFA, niflumic acid, reference compound]
Cl- current density after inhibitor (TMEM16A [2]; NFA 100 μM): 4.51±0.28 pA/pF
inhibition of KCNE1-TMEM16A chloride current (TMEM16A [3]; NFA 100 μM): inhibited

CCc1c(C)nc(SCC(=O)Nc2nc(-c3ccc(OC)cc3)cs2)[nH]c1=O [T16Ainh-A01, reference compound]
Cl- current density after inhibitor (TMEM16A [2]; A01 10 μM): 5.52±0.72 pA/pF
inhibition of KCNE1-TMEM16A chloride current (TMEM16A [3]; T16A(inh)A01 10 μM): inhibited

KCNE1: human KCNE1 protein of 129 amino acids (NP_000210.2), expressed from cDNA
voltage-dependent Cl- current density after rescue (TMEM16A [2]; kcne1−/− PCT cells transfected with KCNE1 cDNA, KO 5.37±0.56): 21.59±1.38 pA/pF
reversal potential (TMEM16A [3]; KCNE1 co-expressed with TMEM16A in HEK293T cells): −4.8±1.3 mV
current density at +100 mV (TMEM16A [3]; [4]): 18.1±2.8 pA/pF
current density at +100 mV (TMEM16A [3]; TMEM16A co-expressed with KCNE1, 1 mM BAPTA): 21.98±5.32 pA/pF
effect of KCNE1 overexpression on SK4 current (SK4 channel): did not induce any increase

LLAKRGRDSGPSR (SEQ ID NO: 7) (Synthetic scramble peptide) [scrambled control peptide, reference compound]
effect of peptide application on TMEM16A current (TMEM16A [3]): no effect
tearing rate at 12 h ([1]; 10 mM topical, 5 μl per eye, n=20 eyes, basal 7.65±0.49 mm (N13ter), 8.10±0.54 mm (Scramble)): 6.45±0.34 mm
effect on tearing rate ([1]; N13ter vs Scramble study, both 10 mM topical): sustained small decrease

S38G: KCNE1 S38G polymorphism variant (full protein, not the hS38G peptide)
effect of KCNE1 polymorphism on KCNQ1 regulation (KCNQ1): do not impair the KCNQ1 regulation
current density at +100 mV (TMEM16A [3]; [4]): 6.96±0.78 pA/pF

T7I: KCNE1 disease mutation T7I, not in the regulating domain, control
current density at +100 mV (TMEM16A [3]; [4]): 24.69±1.57 pA/pF

hS38G: hS38G peptide (SEQ ID NO: 5), N13 presenting S38G polymorphism (LARRSPRGGDGKL; hN13 S38G) [reference compound]
effect of peptide application on TMEM16A current (TMEM16A [3]): no effect

rN13: rat N13 peptide (SEQ ID NO: 6) (LARRSQLRDDSKL; amino acid residues between positions 30 to 42 of the rat KCNE1 protein sequence)
effect of peptide application on TMEM16A current (TMEM16A [3]): only a small effect
